The record followed here is patent US20230416256A1, “SMALL MOLECULE INHIBITORS OF NF-kB INDUCING KINASE” (Janssen Pharmaceutica NV, priority 2020, published 2023).

Read-outs that look alike come from different tables or passages of the source.

The subject of assay [1] is p-IKKα levels in L363 (NIK translocated multiple myeloma) cells. The experiment in a line: Effect of compounds on p-IKKα levels in L363 cells (AlphaLISA SureFire Ultra). In kind it is cell-based, human. The settings on record: 10 μM MG132, 6 h, average of values obtained, read-out: Assay 2 IC50. How it is done: Effect of Compounds on p-IKKα Levels in L363 (NIK Translocated Multiple Myeloma) Cells
All compounds tested were dissolved and serially diluted in DMSO, 1:3 dilution for 11 points in an Echo compatible plate. 100% DMSO was added to columns 12 and 24 of the plate to serve as high and low signal controls. This compound plate was used to spot 20 nL of compound or DMSO into a Greiner 384 well TC plate (781080). The final DMSO concentration was 0.3% (v/v) in cell assays. Human L363 cells (ATCC) were cultured in RPMI1640 medium supplemented with GlutaMax, non-essential amino acids, sodium pyruvate and 10% fetal bovine serum. Cells were routinely maintained at densities of […]-2×10^6 cells per mL at 37° C. in a humidified 5% CO2 atmosphere incubator. Cells were passaged twice a week splitting back to obtain the low density. The day before the assay, cells were washed twice in HBSS (Hank's Balanced Salt Solution), resuspended in Dulbecco's Modified Eagle Medium (DMEM)+0.5% IgG and protease free BSA (Jackson Immuno Research Laboratories), +/−250 ng/ml recombinant human B-cell activating factor (BAFF/BLyS/TNFSF13B) and incubated overnight at 37° C. in a humidified 5% CO2 atmosphere (bulk stimulation with or without BAFF). The next day, the cell concentration was adjusted to 1×10^7 cells/ml in DMEM+/−250 ng/ml BAFF+/10 μM MG132 and plated at […] into compound or DMSO spotted 384 well TC plates. Seeded cells were incubated at 37° C. in a humidified 5% CO2 atmosphere for 6 h. After 6 h, the plates were removed from the incubator and cell lysis was achieved by the addition of 2.5 μl 5×lysis buffer containing protease and phosphatase inhibitors, followed by shaking on a plate shaker at room temperature for 15 min. At the end of this incubation, lysed cells were sequentially treated and incubated with acceptor and donor bead mixes according to the manufacturer's protocol for a 1 plate/2-incubation suspension cell assay (AlphaLISA SureFire Ultra p-IKKa (Ser 176/180) Assay Kit (Perkin Elmer). Plates were read using an EnVision Multilabel Plate Reader (Perkin Elmer). Within an experiment, a concentration response curve for each compound was run in duplicate. The signal obtained in the test wells was normalized using high signal (BAFF stimulated cells, DMSO, MG132) and low signal (unstimulated cells, DMSO) controls. To determine the IC50, a sigmoidal curve was fitted to the plot of % inhibition versus Log10 compound concentration.
(In general: In Alpha technology, singlet oxygen from a donor bead excites a nearby acceptor bead.)

Assay [2] has as its target recombinant human NF-kappaB-inducing kinase (NIK/MAP3K14) (Homo sapiens, UniProt Q99558). Briefly: Inhibition of auto-phosphorylation of recombinant human NIK/MAP3K14 activity (AlphaScreen). In kind it is biochemical. The settings on record: GST-tagged NIK/MAP3K14 1 nM, 5 μM ATP, 2 h at 25° C.; average of values obtained. How it is done:
Inhibition of Auto-Phosphorylation of Recombinant Human NF-kappaB-Inducing Kinase (NIK/MAP3K14) Activity (AlphaScreen®)
NIK/MAP3K14 auto-phosphorylation activity was measured using the AlphaScreen® (αscreen) format (Perkin Elmer). All compounds tested were dissolved in dimethyl sulfoxide (DMSO) and further dilutions were made in assay buffer. The final DMSO concentration was 0.7% (v/v) in assays. The assay buffer was 50 mM Tris pH 7.5 containing 1 mM EGTA (ethylene glycol tetraacetic acid), 1 mM DTT (dithiothreitol), 0.1 mM Na3VO4, 5 mM MgCl2, and 0.01% Tween® 20. The assays were carried out in 384 well Proxiplates (Perkin Elmer). The incubations consisted of the compound, 5 μM Adenosine-5′-triphosphate (ATP), and 1 nM NIK/MAP3K14. Incubations were initiated by the addition of GST-tagged NIK/MAP3K14 enzyme, carried out for 2 h at 25° C. and terminated by addition of stop buffer containing anti-phospho-IKK Ser176/180 antibody. Protein A Acceptor and Glutathione-Donor beads were added before reading using an EnVision Multilabel Plate Reader (Perkin Elmer). The signal obtained in the wells was normalized using high (full enzyme activity, 0.7% DMSO) and low controls (no enzyme activity, 0.7% DMSO, no ATP). IC50's were determined by fitting a sigmoidal curve to % inhibition of control versus Log10 compound concentration.

Setting [3] is: Homo sapiens, L-363, 250 ng/ml BAFF stimulated.
The mark [4] stands for this setting: Homo sapiens, L-363, 6 h, 250 ng/ml BAFF stimulated.

Sequence of recombinant human NF-kappaB-inducing kinase (NIK/MAP3K14) (Q99558 whole entry): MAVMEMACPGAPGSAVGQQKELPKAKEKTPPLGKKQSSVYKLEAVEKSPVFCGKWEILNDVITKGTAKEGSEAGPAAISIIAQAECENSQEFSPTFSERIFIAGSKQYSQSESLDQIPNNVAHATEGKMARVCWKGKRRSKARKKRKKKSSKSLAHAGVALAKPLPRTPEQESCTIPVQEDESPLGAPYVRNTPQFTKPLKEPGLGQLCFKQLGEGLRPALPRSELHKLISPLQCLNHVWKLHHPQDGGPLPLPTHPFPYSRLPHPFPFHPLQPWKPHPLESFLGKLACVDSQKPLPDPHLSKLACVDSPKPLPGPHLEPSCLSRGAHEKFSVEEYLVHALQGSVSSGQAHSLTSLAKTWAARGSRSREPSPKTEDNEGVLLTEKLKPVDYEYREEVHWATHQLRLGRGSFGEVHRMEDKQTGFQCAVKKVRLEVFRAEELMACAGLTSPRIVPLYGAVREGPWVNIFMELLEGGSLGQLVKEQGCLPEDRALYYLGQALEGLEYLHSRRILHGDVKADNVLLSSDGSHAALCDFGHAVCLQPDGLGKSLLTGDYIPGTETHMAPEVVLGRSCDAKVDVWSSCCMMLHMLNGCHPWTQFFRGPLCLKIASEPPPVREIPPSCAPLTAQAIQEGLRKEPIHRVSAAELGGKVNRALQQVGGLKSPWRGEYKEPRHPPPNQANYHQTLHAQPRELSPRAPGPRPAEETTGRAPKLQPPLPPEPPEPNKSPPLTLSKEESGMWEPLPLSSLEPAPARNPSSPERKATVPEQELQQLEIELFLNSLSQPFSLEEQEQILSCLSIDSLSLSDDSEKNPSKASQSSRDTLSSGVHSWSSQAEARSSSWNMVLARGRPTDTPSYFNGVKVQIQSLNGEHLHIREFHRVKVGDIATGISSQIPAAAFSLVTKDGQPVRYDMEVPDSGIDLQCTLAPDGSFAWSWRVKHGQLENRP

Broadly, the IC50 is the concentration that gives 50% inhibition. As to `CN1CC[C@@](O)(c2cccc(-c3csc(-c4c[nH]c5ncc(C(=O)O)cc45)n3)c2)C1=O` [Example 51, (R)-3-(4-(3-(3-Hydroxy-1-methyl-2-oxopyrrolidin-3-yl)phenyl)thiazol-2-yl)-1H-pyrrolo[2,3-b]pyridine-5-carboxylic acid], the IC50 is more than 500 nM in assay [1] (setting [3]) and not above 100 nM in assay [2].

`O[C@@]1(c2cccc(-c3csc(-c4c[nH]c5ncncc45)n3)c2)CCc2cccnc21` (single isomer, unassigned) [Example 5]: the IC50 in assay [1] (setting [4]) is 100 to 500 nM; in assay [2] it was not above 100 nM.

For `Cc1cnc2c(-c3nc(-c4cccc([C@]5(O)CCn6ccnc65)c4)cs3)c[nH]c2n1` [Example 83, (R)-7-(3-(2-(3-Methyl-5H-pyrrolo[2,3-b]pyrazin-7-yl)thiazol-4-yl)phenyl)-6,7-dihydro-5H-pyrrolo[1,2-a]imidazol-7-ol], the values for the IC50 in assay [1] (setting [4]) and in assay [2] were 100 to 500 nM and not above 100 nM, respectively.

On to `CN1CC[C@@](O)(c2cccc(-c3coc(-c4c[nH]c5ncccc45)n3)c2)C1=O` [Example 116, (R)-3-(3-(2-(1H-Pyrrolo[2,3-b]pyridin-3-yl)oxazol-4-yl)phenyl)-3-hydroxy-1-methylpyrrolidin-2-one], for which the figures for the IC50 in assay [1] (setting [3]) and in assay [2] were more than 500 nM and not above 100 nM, respectively.

`O[C@]1(c2cccc(-c3csc(-c4c[nH]c5ncncc45)n3)c2)CCc2cccnc21` (single isomer, unassigned) [Example 6]: the IC50 in assay [1] (setting [4]) is more than 500 nM; in assay [2], 100 to 500 nM.

Take `O[C@]1(c2cccc(-c3csc(-c4c[nH]c5ncccc45)n3)c2)C=Cc2cccnc21` (single isomer, unassigned) [Example 34]: the IC50 in assay [1] (setting [4]) and in assay [2] was more than 500 nM in each case.

In the case of `C[C@@](O)(c1cccc(-c2csc(-c3c[nH]c4ncccc34)n2)c1)c1nccs1` (single isomer, unassigned) [Example 65], the IC50 is more than 500 nM in assay [1] (setting [4]) and not above 100 nM in assay [2].

Turning to `[2H]c1cnc2[nH]cc(-c3nc(-c4cccc([C@@]5(O)CCn6ccnc65)c4)cs3)c2n1` [Example 19, (S)-7-(3-(2-(5H-Pyrrolo[2,3-b]pyrazin-7-yl-2-d)thiazol-4-yl)phenyl)-6,7-dihydro-5H-pyrrolo[1,2-a]imidazol-7-ol], the IC50 in assay [1] (setting [4]) and in assay [2] was more than 500 nM throughout.

As for `CN1CC[C@@](O)(c2cccc(-c3csc(-c4c[nH]c5ncc(C#N)cc45)n3)c2)C1=O` [Example 72, (R)-3-(4-(3-(3-Hydroxy-1-methyl-2-oxopyrrolidin-3-yl)phenyl)thiazol-2-yl)-1H-pyrrolo[2,3-b]pyridine-5-carbonitrile], the IC50 in assay [1] (setting [3]) is more than 500 nM; in assay [2], not above 100 nM.

As to `CN1CC[C@@](O)(c2cccc(-c3csc(-c4c[nH]c5ncccc45)n3)c2)C1=O` (single isomer, unassigned) [Example 47], the values for the IC50 in assay [1] (setting [3]) and in assay [2] were 100 to 500 nM and not above 100 nM, respectively.

Consider `C[C@](O)(c1cccc(-c2csc(-c3c[nH]c4ncccc34)n2)c1)c1ccccn1` (single isomer, unassigned) [Example 61], for which the IC50 in assay [1] (setting [4]) and in assay [2] was more than 500 nM each time.

On to `O[C@@]1(c2cccc(-c3csc(-c4c[nH]c5ncccc45)n3)c2)CCn2ccnc21` [Example 10, (R)-7-(3-(2-(1H-Pyrrolo[2,3-b]pyridin-3-yl)thiazol-4-yl)phenyl)-6,7-dihydro-5H-pyrrolo[1,2-a]imidazol-7-ol], for which the IC50 in assay [1] (setting [4]) and in assay [2] was not above 100 nM throughout.

With `CN1CC[C@@](O)(c2cccc(-c3ncc(-c4c[nH]c5ncccc45)s3)c2)C1=O` [Example 9, (R)-3-(3-(5-(1H-Pyrrolo[2,3-b]pyridin-3-yl)thiazol-2-yl)phenyl)-3-hydroxy-1-methylpyrrolidin-2-one], the results for the IC50 in assay [1] (setting [3]) and in assay [2] were more than 500 nM and 100 to 500 nM, respectively.

Consider `CN1CC[C@@](O)(c2cccc(-c3nc(-c4cc(N)nc5[nH]ccc45)cs3)c2)C1=O` [Example 129, (R)-3-(3-(4-(6-Amino-1H-pyrrolo[2,3-b]pyridin-4-yl)thiazol-2-yl)phenyl)-3-hydroxy-1-methylpyrrolidin-2-one], for which the IC50 in assay [1] (setting [3]) and in assay [2] was more than 500 nM each time.

Take `CN1CCC[C@@](O)(c2cccc(-c3csc(-c4c[nH]c5nccnc45)n3)c2)C1=O` [Example 54, (R)-3-(3-(2-(5H-Pyrrolo[2,3-b]pyrazin-7-yl)thiazol-4-yl)phenyl)-3-hydroxy-1-methylpiperidin-2-one]: the IC50 in assay [1] (setting [3]) is 100 to 500 nM; in assay [2] it was not above 100 nM.

Turning to `CN1CC[C@@](O)(c2cccc(-n3cnc(-c4c[nH]c5ncccc45)n3)c2)C1=O` (single isomer, unassigned) [Example 121], the IC50 was more than 500 nM in assay [1] (setting [3]) and not above 100 nM in assay [2].

On to `Cc1cnc2[nH]cc(-c3nc(-c4cccc([C@@]5(O)CCn6ccnc65)c4)cs3)c2n1` [Example 82, (S)-7-(3-(2-(2-Methyl-5H-pyrrolo[2,3-b]pyrazin-7-yl)thiazol-4-yl)phenyl)-6,7-dihydro-5H-pyrrolo[1,2-a]imidazol-7-ol], for which the IC50 was more than 500 nM in assay [1] (setting [4]) and 100 to 500 nM in assay [2].

As for `[2H]c1[nH]c2nccnc2c1-c1nc(-c2cccc([C@@]3(O)CCn4ccnc43)c2)cs1` [Example 18, (S)-7-(3-(2-(5H-Pyrrolo[2,3-b]pyrazin-7-yl-6-d)thiazol-4-yl)phenyl)-6,7-dihydro-5H-pyrrolo[1,2-a]imidazol-7-ol], the IC50 in assay [1] (setting [4]) and in assay [2] was more than 500 nM in each case.

For `CN1CC[C@@](O)(c2cccc(-c3cc(-c4c[nH]c5ncccc45)[nH]n3)c2)C1=O` [Example 117, (R)-3-(3-(5-(1H-Pyrrolo[2,3-b]pyridin-3-yl)-1H-pyrazol-3-yl)phenyl)-3-hydroxy-1-methylpyrrolidin-2-one], the figures for the IC50 in assay [1] (setting [3]) and in assay [2] were more than 500 nM and 100 to 500 nM, respectively.

For the molecule `C[C@]1(O)C[C@@](O)(c2cccc(-c3csc(-c4c[nH]c5ncccc45)n3)c2)c2ncccc21` (single isomer, unassigned) [Example 108], the results for the IC50 in assay [1] (setting [4]) and in assay [2] were more than 500 nM and 100 to 500 nM, respectively.

`O[C@@]1(c2cccc(-c3csc(-c4c[nH]c5nccnc45)n3)c2)COc2cccnc21` [Example 17, (R)-3-(3-(2-(5H-Pyrrolo[2,3-b]pyrazin-7-yl)thiazol-4-yl)phenyl)-2,3-dihydrofuro[3,2-b]pyridin-3-ol]: the IC50 in assay [1] (250 ng/ml BAFF stimulated) and in assay [2] was not above 100 nM each time.

As to `CN1C[C@](O)(c2cccc(-c3csc(-c4c[nH]c5nccnc45)n3)c2)C1=O` [Example 46, (R)-3-(3-(2-(5H-Pyrrolo[2,3-b]pyrazin-7-yl)thiazol-4-yl)phenyl)-3-hydroxy-1-methylazetidin-2-one], the IC50 in assay [1] (setting [3]) and in assay [2] was more than 500 nM in each case.

For the molecule `O[C@@]1(c2cccc(-c3csc(-c4c[nH]c5ncc(Cl)cc45)n3)c2)CCn2ccnc21` [Example 27, (R)-7-(3-(2-(5-Chloro-1H-pyrrolo[2,3-b]pyridin-3-yl)thiazol-4-yl)phenyl)-6,7-dihydro-5H-pyrrolo[1,2-a]imidazol-7-ol], the IC50 in assay [1] (setting [4]) and in assay [2] was not above 100 nM in each case.
